According to ChEMBL document CHEMBL1145498, “A systematic interaction map of validated kinase inhibitors with Ser/Thr kinases” (Proc Natl Acad Sci U S A, 2007):

Columns and labels:
[1] = target: T1, Lymphokine-activated killer T-cell-originated protein kinase (Homo sapiens) (UniProt Q96KB5)
T1 sequence (whole entry): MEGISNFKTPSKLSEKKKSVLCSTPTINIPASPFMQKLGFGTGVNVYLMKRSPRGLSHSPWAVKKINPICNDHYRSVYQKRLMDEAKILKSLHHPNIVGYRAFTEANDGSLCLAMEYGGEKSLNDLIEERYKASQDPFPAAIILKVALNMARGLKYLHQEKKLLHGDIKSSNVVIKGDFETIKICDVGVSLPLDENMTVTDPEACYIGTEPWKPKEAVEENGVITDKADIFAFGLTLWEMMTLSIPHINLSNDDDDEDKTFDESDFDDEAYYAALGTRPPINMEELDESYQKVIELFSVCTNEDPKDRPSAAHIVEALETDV

[2] = target: Serine/threonine-protein kinase Nek6 (Homo sapiens) (UniProt Q9HC98)
Sequence of Serine/threonine-protein kinase Nek6 (Homo sapiens) (Q9HC98 whole entry): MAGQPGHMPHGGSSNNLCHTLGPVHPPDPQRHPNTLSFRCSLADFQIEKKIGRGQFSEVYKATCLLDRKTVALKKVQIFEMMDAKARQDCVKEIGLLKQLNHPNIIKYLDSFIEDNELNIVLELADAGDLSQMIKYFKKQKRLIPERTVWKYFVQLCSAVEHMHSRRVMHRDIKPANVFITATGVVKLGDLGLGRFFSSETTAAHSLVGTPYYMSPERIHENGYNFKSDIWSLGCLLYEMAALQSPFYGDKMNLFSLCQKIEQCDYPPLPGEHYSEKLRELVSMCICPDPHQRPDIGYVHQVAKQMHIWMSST

[3] = target: Death-associated protein kinase 3 (Homo sapiens) (UniProt O43293)
Sequence of Death-associated protein kinase 3 (Homo sapiens) (O43293 whole entry, looked up): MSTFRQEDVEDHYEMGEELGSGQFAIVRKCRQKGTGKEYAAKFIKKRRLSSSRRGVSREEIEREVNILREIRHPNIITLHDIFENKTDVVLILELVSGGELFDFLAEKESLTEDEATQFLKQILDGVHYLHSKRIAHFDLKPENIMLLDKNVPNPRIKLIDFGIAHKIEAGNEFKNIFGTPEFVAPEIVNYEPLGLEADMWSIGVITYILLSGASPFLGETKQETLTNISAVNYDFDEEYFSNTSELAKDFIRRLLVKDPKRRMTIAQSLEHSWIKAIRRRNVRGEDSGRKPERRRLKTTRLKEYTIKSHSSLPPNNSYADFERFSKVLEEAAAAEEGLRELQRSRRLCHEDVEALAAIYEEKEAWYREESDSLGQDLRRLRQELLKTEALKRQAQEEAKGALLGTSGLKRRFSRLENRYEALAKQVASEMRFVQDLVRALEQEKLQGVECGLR

[4] = target: Mitogen-activated protein kinase 3 (Homo sapiens, UniProt P27361)
[5] = target: Dual specificity protein kinase CLK3 (Homo sapiens) (UniProt P49761)
Sequence of Dual specificity protein kinase CLK3 (Homo sapiens) (P49761 whole entry, looked up): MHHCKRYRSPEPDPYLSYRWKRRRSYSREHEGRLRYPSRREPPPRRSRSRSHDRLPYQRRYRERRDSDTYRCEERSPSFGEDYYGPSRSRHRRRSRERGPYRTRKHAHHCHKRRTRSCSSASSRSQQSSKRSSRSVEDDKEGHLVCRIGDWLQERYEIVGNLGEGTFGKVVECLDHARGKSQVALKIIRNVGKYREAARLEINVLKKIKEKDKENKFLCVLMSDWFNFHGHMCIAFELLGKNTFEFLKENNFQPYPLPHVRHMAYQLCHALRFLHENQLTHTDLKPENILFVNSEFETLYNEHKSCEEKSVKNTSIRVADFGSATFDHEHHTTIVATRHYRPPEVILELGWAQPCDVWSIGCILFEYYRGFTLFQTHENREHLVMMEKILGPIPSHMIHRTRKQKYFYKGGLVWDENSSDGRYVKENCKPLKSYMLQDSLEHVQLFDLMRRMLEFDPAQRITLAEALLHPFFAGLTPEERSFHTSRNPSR

[6] = target: STE20-like serine/threonine-protein kinase (Homo sapiens) (UniProt Q9H2G2)
Sequence of STE20-like serine/threonine-protein kinase (Homo sapiens) (Q9H2G2 whole entry, looked up): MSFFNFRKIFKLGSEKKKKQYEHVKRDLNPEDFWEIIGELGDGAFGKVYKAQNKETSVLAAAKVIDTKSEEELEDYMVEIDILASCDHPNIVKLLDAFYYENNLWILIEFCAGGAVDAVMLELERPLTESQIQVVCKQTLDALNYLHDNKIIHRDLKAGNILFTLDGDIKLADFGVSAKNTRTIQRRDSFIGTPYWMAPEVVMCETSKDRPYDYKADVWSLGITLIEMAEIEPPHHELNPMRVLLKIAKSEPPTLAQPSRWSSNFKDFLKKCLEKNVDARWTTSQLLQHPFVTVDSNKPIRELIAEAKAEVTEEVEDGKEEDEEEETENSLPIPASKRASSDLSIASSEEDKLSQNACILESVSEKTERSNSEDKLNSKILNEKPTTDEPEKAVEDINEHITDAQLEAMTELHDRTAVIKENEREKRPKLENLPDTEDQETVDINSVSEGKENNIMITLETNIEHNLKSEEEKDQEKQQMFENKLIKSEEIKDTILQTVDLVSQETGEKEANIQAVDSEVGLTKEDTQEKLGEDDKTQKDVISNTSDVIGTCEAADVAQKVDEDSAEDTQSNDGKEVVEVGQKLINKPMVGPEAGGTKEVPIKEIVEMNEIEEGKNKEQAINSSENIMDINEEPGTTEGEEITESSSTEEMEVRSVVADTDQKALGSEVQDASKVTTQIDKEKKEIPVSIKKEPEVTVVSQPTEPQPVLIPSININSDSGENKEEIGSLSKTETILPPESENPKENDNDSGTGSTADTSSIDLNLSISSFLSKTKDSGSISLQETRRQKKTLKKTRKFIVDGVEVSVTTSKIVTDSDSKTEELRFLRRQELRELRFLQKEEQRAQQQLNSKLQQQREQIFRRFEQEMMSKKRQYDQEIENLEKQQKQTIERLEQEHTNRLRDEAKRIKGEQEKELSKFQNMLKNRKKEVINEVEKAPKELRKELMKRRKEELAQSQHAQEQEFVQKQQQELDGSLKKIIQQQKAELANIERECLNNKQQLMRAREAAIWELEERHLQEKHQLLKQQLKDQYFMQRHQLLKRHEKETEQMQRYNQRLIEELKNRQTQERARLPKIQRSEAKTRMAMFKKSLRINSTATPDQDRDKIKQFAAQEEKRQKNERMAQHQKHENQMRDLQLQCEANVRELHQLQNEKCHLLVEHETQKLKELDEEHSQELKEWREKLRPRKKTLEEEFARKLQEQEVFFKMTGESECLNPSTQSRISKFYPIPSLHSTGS

[7] = target: Calcium/calmodulin-dependent protein kinase type 1G (Homo sapiens) (UniProt Q96NX5)
Sequence of Calcium/calmodulin-dependent protein kinase type 1G (Homo sapiens) (Q96NX5 whole entry): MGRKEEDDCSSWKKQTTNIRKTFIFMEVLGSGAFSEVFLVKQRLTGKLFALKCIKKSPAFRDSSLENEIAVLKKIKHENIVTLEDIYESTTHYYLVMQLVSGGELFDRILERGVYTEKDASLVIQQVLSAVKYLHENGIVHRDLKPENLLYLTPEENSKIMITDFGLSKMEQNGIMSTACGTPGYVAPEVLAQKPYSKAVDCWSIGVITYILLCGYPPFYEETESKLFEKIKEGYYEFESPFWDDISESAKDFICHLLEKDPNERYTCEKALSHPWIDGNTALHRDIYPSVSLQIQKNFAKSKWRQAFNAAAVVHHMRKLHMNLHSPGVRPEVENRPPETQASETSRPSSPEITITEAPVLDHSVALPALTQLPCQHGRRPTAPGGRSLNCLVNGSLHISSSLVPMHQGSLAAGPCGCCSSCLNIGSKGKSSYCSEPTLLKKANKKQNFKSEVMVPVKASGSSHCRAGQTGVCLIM

[8] = target: Mitogen-activated protein kinase 11 (Homo sapiens, UniProt Q15759)
Sequence of Mitogen-activated protein kinase 11 (Q15759 whole entry): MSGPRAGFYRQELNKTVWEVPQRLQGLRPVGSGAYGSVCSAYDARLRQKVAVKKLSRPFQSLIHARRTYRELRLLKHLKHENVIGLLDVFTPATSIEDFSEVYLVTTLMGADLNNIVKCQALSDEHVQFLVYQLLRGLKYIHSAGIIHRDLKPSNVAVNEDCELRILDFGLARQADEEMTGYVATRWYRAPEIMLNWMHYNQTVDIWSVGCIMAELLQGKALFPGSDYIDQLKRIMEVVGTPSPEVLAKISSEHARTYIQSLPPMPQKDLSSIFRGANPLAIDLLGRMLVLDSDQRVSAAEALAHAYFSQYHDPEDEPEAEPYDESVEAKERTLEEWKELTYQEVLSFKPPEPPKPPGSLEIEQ

[9] = target: Serine/threonine-protein kinase pim-3 (Homo sapiens) (UniProt Q86V86)
[10] = target: T2, Serine/threonine-protein kinase PLK4 (Homo sapiens) (UniProt O00444)
T2 sequence (whole entry): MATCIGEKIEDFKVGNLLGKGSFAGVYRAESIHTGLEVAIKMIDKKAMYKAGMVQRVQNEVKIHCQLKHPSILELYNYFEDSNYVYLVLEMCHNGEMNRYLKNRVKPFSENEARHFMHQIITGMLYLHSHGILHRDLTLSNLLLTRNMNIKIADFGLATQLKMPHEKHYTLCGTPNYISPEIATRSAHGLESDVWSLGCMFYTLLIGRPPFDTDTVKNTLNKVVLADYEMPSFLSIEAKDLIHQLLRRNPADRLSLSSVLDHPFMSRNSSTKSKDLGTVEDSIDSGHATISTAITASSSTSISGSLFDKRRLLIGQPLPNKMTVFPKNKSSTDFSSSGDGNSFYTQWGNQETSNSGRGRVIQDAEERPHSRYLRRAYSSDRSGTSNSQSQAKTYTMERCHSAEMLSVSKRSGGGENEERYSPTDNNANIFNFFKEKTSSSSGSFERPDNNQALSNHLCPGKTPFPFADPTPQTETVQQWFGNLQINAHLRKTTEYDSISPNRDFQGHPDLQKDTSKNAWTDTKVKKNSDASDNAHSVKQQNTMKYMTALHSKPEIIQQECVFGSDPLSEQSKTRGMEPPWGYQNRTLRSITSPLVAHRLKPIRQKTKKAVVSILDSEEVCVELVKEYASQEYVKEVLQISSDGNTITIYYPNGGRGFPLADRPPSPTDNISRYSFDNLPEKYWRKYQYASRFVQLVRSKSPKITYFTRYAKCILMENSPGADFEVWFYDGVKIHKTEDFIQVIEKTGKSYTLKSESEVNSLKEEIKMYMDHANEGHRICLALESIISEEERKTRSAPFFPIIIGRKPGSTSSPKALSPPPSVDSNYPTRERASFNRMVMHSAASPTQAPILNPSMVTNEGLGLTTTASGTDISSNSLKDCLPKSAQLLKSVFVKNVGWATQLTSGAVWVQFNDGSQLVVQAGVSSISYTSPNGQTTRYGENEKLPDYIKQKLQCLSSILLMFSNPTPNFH

[11] = target: Cyclin-dependent kinase 6 (Homo sapiens) (UniProt Q00534)
[12] = target: Tyrosine-protein kinase JAK1 (Homo sapiens) (UniProt P23458)
[13] = target: Serine/threonine-protein kinase OSR1 (Homo sapiens) (UniProt O95747)
[14] = target: Serine/threonine-protein kinase pim-2 (Homo sapiens, UniProt Q9P1W9)
Sequence of Serine/threonine-protein kinase pim-2 (Q9P1W9 whole entry, looked up, canonical isoform): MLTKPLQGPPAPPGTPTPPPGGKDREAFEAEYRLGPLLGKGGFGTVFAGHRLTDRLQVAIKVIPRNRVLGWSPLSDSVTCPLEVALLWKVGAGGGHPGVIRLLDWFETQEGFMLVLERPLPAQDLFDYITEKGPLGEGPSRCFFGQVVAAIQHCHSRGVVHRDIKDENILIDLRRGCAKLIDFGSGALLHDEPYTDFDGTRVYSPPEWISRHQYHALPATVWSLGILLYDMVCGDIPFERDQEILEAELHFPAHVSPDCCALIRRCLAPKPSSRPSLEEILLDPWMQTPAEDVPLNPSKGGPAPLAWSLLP

[15] = target: Casein kinase I isoform gamma-1 (Homo sapiens) (UniProt Q9HCP0)
Sequence of Casein kinase I isoform gamma-1 (Homo sapiens) (Q9HCP0 whole entry, looked up, canonical isoform): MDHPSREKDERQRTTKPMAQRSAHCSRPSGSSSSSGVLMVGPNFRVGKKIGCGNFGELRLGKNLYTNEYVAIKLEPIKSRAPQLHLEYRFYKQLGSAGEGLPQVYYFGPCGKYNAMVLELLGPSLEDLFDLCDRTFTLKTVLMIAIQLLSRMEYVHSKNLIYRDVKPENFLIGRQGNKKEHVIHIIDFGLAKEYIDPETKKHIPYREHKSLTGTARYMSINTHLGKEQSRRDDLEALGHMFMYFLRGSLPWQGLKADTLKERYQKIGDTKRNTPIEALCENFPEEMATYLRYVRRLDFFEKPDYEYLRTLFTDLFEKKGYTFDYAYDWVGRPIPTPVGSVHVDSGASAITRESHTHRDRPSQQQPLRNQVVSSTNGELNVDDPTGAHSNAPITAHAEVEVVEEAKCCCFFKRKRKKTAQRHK

[16] = target: Calcium/calmodulin-dependent protein kinase kinase 2 (Homo sapiens, UniProt Q96RR4)
[17] = target: Dual specificity protein kinase CLK2 (Homo sapiens) (UniProt P49760)
[18] = target: cAMP-dependent protein kinase catalytic subunit alpha (Homo sapiens) (UniProt P17612)
[19] = target: Serine/threonine-protein kinase Chk2 (Homo sapiens, UniProt O96017)
Sequence of Serine/threonine-protein kinase Chk2 (O96017 whole entry): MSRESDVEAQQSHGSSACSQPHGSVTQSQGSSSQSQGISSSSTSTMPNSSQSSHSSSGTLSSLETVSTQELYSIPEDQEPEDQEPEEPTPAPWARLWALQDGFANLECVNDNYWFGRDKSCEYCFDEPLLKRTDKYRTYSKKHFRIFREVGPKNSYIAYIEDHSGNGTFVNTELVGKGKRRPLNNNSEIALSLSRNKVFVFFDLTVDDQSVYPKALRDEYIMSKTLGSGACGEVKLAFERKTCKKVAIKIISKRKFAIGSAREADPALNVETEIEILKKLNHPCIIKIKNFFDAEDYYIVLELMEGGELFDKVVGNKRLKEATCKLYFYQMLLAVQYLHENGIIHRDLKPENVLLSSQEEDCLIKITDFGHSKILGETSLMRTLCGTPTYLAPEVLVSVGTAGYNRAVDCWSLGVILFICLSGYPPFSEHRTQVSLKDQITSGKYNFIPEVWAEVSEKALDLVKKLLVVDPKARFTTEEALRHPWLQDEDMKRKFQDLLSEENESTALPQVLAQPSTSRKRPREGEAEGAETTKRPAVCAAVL

[20] = target: Ribosomal protein S6 kinase alpha-3 (Homo sapiens) (UniProt P51812)
[21] = target: T3, Serine/threonine-protein kinase VRK3 (Homo sapiens) (UniProt Q8IV63)
T3 sequence (whole entry): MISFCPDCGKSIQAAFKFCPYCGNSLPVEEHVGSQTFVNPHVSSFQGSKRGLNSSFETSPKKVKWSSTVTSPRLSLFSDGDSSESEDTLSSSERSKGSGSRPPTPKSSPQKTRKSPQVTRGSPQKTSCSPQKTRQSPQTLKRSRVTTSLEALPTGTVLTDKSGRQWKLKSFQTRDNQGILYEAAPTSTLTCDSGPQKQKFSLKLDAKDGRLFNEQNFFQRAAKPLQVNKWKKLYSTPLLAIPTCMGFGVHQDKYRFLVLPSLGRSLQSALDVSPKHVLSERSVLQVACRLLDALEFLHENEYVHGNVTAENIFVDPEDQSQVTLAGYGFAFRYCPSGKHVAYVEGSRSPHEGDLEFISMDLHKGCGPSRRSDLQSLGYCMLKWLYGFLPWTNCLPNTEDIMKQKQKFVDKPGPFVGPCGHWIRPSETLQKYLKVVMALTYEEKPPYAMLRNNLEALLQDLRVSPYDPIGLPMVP

| SMILES | ΔTm [1] [°C] | ΔTm [2] [°C] | ΔTm [3] [°C] | ΔTm [4] [°C] | ΔTm [5] [°C] | ΔTm [6] [°C] | ΔTm [7] [°C] | ΔTm [8] [°C] | ΔTm [9] [°C] | ΔTm [10] [°C] | ΔTm [11] [°C] | ΔTm [12] [°C] | ΔTm [13] [°C] | ΔTm [14] [°C] | ΔTm [15] [°C] | ΔTm [16] [°C] | ΔTm [17] [°C] | ΔTm [18] [°C] | ΔTm [19] [°C] | ΔTm [20] [°C] | further results |
| --- | --- | --- | --- | --- | --- | --- | --- | --- | --- | --- | --- | --- | --- | --- | --- | --- | --- | --- | --- | --- | --- |
| CCN(CC)CCNC(=O)c1c(C)[nH]c(/C=C2\C(=O)Nc3ccc(Cl)cc32)c1C [SU-11652] | -0.4 | -0.8 | 5.9 | 0 | 2.2 | 7.5 | 5.7 | -0.4 | 4.7 | 7.8 | 2 | 9.7 | 2.9 | 2.3 | 4.3 | 7.9 | 5.8 | 2 | 10.3 | 6.8 | ΔTm [21]: 0.3 °C |
| COc1cccc(-c2cc(=O)c3ccccc3o2)c1N | 1.2 | -0.1 | -0.5 | 0 | 0 | -0.1 | -0.2 | 0.2 | 0.7 | 0.2 | 0.1 | 1 | 0.2 | 0.2 | 0.1 | -0.4 | 0 | 0.3 | -0.5 | -0.2 | ΔTm [21]: 0.6 °C |
| COc1cc(O)c2c(c1)oc(=O)c1c3cc(O)c(O)cc3oc21 [WEDELOLACTONE] | 0 | 0.4 | 0 | 0.8 | 2.1 | 1.3 | 0.1 | 1.5 | 5.9 | 2.9 | 0.6 | 2.2 | 1.9 | 2.2 | 1 | 2.3 | 1.2 | 2.3 | 1.8 | 1 | ΔTm [21]: -1 °C |
| O=C1NC(=O)c2c1c1c3ccccc3[nH]c1n1cncc21 [ISOGRANULATIMIDE] | 1 | 1.5 | 5.3 | 2 | 2.3 | 2.1 | 3.4 | 2 | 8.8 | 3.2 | 2.7 | 7.5 | 1.4 | 8 | 4.3 | 0.5 | 4.1 | 5.9 | 6.6 | 2.5 | ΔTm [21]: 3.7 °C |
| CC(C)(C)n1nc(-c2cccc3ccccc23)c2c(N)ncnc21 | 0.5 | 0.1 | -0.8 | 0.8 | 0.2 | 6.1 | -0.3 | 2.9 | 0.7 | 1.1 | -0.3 | -0.1 | 1.1 | -0.2 | 0.1 | 0.7 | 0.8 | 2.1 | 0.3 | 0.3 | ΔTm [21]: 0.2 °C |
| N#C/C(=C(/N)Sc1ccc(N)cc1)c1ccccc1C(F)(F)F | -0.4 | -0.1 | -0.2 | -0.1 | 0 | 0 | 0.2 | 0 | 0.8 | 0.1 | 0.3 | -5 | 0.5 | 0.2 | 0.5 | -0.2 | 0 | 0.7 | 0.3 | -0.1 | ΔTm [21]: 0.5 °C |
| NC1=N/C(=C2/CCNC(=O)c3[nH]ccc32)C(=O)N1 [DEBROMOHYMENIALDISINE] | -0.4 | -0.5 | 5.2 | 0.6 | 4.5 | 0.6 | 0.2 | -0.4 | 2.4 | 0.9 | 0.6 | -0.2 | 0.4 | 2.5 | 3.6 | 1.4 | 3.7 | 0 | 1.7 | 6.4 | ΔTm [21]: 0.5 °C |
| COc1ccc2c(c[n+](C)c3c4cc5c(cc4ccc23)OCO5)c1OC [CHELERYTHRINE CHLORIDE] | -0.4 | -2.5 | 0.1 | -0.5 | -1 | -2.4 | -1.1 | 0.6 | -0.9 | -3.1 | -1 | 0.3 | -2.6 | -3.1 | 0 | -1.6 | -0.2 | 1.4 | -3.9 | -0.3 | ΔTm [21]: -0.6 °C |
| N=C(N)NCCNS(=O)(=O)c1cccc2cnccc12 | 0.6 | 0.2 | 2 | 0.1 | 0 | 0.3 | -0.4 | -0.3 | 0.8 | 0.1 | 0 | -0.3 | 1.1 | 0.6 | -0.3 | -0.1 | 0.1 | 1.7 | 0.2 | 0.6 | ΔTm [21]: 0.3 °C |
| O=C1NC(=O)c2c1c1c3ccccc3n3c1c1c2c2ccccc2n1C1CCC3O1 | -0.3 | -0.3 | -0.5 | -0.2 | 0.5 | 0.1 | -0.2 | -0.1 | 7.3 | 0 | -0.3 | -0.2 | 0.7 | 5.5 | 0.2 | -0.3 | 1.7 | 0.3 | 3.9 | -0.4 | ΔTm [21]: 0 °C |
